Results: patent publication US6872562B2, “Herbicide resistant dinitrogen fixing bacteria and method of use” (priority 2001, dated 2005)

Tests used:
[1] = system: cultivar TV5866RR; experiment: Growth cabinet: nitrogenase activity (relative ARA) under soil-water deficits; assay type: in vivo, soybean (Glycine max)
Experimental: Plants were established in flow-through pots (Purcell et al., 1997) for nondestructive measurement of acetylene-reduction activity (ARA) as an indicator of relative nitrogenase activity. Pots were constructed of 10-cm-diameter, 40-cm-long polyvinyl chloride pipe, sealed at the bottom and top with end caps. Fittings were inserted into the bottom for drainage and introduction of air samples during ARA measurements, and into the top for air exhaust and sampling. Pot tare weights were recorded prior to adding potting mixture. Potting media and nutrients were the same as described in Examples 1-3. […] After allowing excess water to drain for 12 h, pot capacity weights were recorded. […]
ARA was measured beginning 28 DAE by introducing a 9:1 air to acetylene mixture at 0.5 L min^−1 into the bottom of the pots that were sealed around the plant root system. […] Ethylene concentration in the gas samples was quantified by gas chromatography using a flame ionization detector and a Porapak N column (de Silva et al., 1996). […] Ethylene concentrations were expressed as μmol C2H4 plant^−1h^−1, and means within an experiment and sample date were compared using standard errors. […]
Soil-water data were converted from pot capacity weight to fraction of the transpirable soil water (FTSW) (de Silva et al., 1996). […] Soil weight at zero transpirable water was determined to be 0.24 of the soil weight at pot capacity. […]

[2] = system: B. japonicum (strain USDA 110); experiment: Growth of B. japonicum in defined liquid media with glyphosate up to 10 mM (Example 6); assay type: cell-based; settings: Bradyrhizobium japonicum, 216 h, read-out: Growth inhibition compared to the control without glyphosate
Experimental: The defined media consists of 25 mM arabinose as the carbon source, 15 mM (NH4)2SO4, 0.7 mM MgSO4, 0.4 mM CaCl2, 20 mM NaCl, 2.5 mM K2HPO4, and 40 mM MOPS (3-[N-morpholino]propane-sulfonic acid), at pH 6.8, plus the appropriate micronutrients. […] These colonies were removed and stored in frozen culture in 50% sterile glycerol.

[3] = system: B. japonicum (strain USDA 110); experiment: B. japonicum growth in culture with increasing glyphosate (Example 12); assay type: cell-based; settings: Bradyrhizobium japonicum, 168 h; read-out: Growth inhibition relative to the control
Experimental: 0.1, 1, 3, and 5 mM. […] At concentrations as low as 0.01 mM, B. japonicum growth was inhibited 18% relative to the control (FIG. 4). At a concentration of 0.1 mM, growth was inhibited approximately 40% relative to the control.

[4] = system: glyphosate resistant soybean cultivar DK5961RR inoculated with B. japonicum (USDA 110); experiment: Seed-imbibed glyphosate: nodulation, greenhouse experiment; assay type: in vivo
Experimental: Pots 15-cm in diameter, with a total volume of 1.3 L were filled with a peat based potting mix that was saturated with a nitrogen-free nutrient solution. Six seeds from a particular glyphosate-concentration seed soak were planted in each pot and 1 ml of B. japonicum (USDA 110) containing approximately 4.24×10^6 cells was applied evenly across the surface and washed into the potting mix with 250 ml of minus N nutrients. Plants were thinned to one per pot after emergence. Day and night temperatures were approximately 30 and 24 C, respectively, and natural illumination was supplemented with 1000 W metal-halide lamps for a day length of 16 hours. […] Root nodules were scanned and images were used to determine nodule number and size as influenced by glyphosate treatment. The […] was repeated in a controlled environmental growth chamber with six replications. Growth chamber temperature was a constant 25 C and light and dark periods were 16 and 8 hours, respectively. Plants were harvested at 15 days after planting and sectioned as previously described (Example 1).

For `O=C(O)CNCP(=O)(O)O` [glyphosate, N-(phosphonomethyl)glycine], the “Sensitivity of ARA to water deficits vs untreated plants” value ([1]; in vivo) was “more sensitive”, the “Nitrogenase activity, % of the well-watered control” value ([1]; water-deficit plants at FTSW of 0.21, 1.68 kg ha^−1 on 5, 12, and 19 DAE) was 71% and the inhibition at 10000 µM [2] was roughly 90%. The inhibition at 10 µM [3] was 18%, the inhibition at 100 µM [3] was roughly 40% and the “Reduction in nodule number compared to the control” value ([4]; 3.1 mM glyphosate seed treatment, 10 DAP) was roughly 30%. The Nodule number ([4]; glyphosate concentrations greater than 3.1 mM) was “increased to values similar to that of plants from the control treatment” and the “Average diameter of individual nodules” value ([4]; increasing glyphosate concentrations, 17 DAP) was “tended to decrease”.
